Source: US11911497B2, “Rebaudioside E and food products sweetened with rebaudioside E” (Conagen Inc., priority 2013, dated 2024)

Tests used:
[1] = Sourness test, panelists detect presence of sourness by yes or no rating; parameters: species or system human
Description: (§1) A standard sweetness test method was employed. Briefly, training sample solutions made of sucrose in water at 1-5% concentration (Brix) at 1% increments were prepared. Reb-E test samples were made of Reb-E in water at 20-60 ppm (parts per million). Panelists were trained to recognize and differentiate between each training solution. Three test solutions of known sucrose concentrations were given to panelists to ensure equal training and to establish a baseline.
(§2) Test solutions were randomized using a random number generator. Two sets of tests were generated for each panelist. Saltine crackers were provided along with water for wash out between test solutions. Each panelist rated each of the solutions according to sweetness (in Brix) and sourness (yes or no). The intensity of each attribute was also collected.
The ability of Reb-E to overcome sourness was also measured, and compared to sucrose. Panelists were asked to detect the presence of sourness by a yes or no rating.

[2] = Standard sweetness test, panelists rate sweetness (Brix) of solutions in water; parameters: species or system human; details: for Brix (average): average of all panelists
Description: as §1, §2

[3] = Reb-E 20 PPM + 0.6% citric acid
[4] = Reb-E 40 PPM + 0.6% citric acid
[5] = Reb-E 50 PPM + 0.6% citric acid
[6] = Reb-E 60 PPM + 0.6% citric acid
[7] = sucrose 10 ×1000 PPM (1%) + 0.6% citric acid
[8] = sucrose 20 ×1000 PPM (2%) + 0.6% citric acid
[9] = sucrose 30 ×1000 PPM (3%) + 0.6% citric acid
[10] = sucrose 40 ×1000 PPM (4%) + 0.6% citric acid

Compound: C=C1C[C@@]23CCC4[C@](C)(C(=O)OC5OC(CO)C(O)C(O)C5OC5OC(CO)C(O)C(O)C5O)CCC[C@@]4(C)[C@@H]2CCC1(OC1OC(CO)C(O)C(O)C1OC1OC(CO)C(O)C(O)C1O)C3 (stereo partly drawn) [Reb-E, 13-[(2-O-β-D-glucopyranosyl-β-D-glucopyranosyl)oxy] ent-kaur-16-en-19-oic acid-(2-O-β-D-glucopyranosyl-β-D-glucopyranosyl) ester]
- Sourness detected: No (number of ratings) [1, 3]: 2
- Sourness detected: Yes (number of ratings) [1, 3]: 10
- Sourness detected: No (number of ratings) [1, 4]: 2
- Sourness detected: Yes (number of ratings) [1, 4]: 4
- Sourness detected: No (number of ratings) [1, 5]: 1
- Sourness detected: Yes (number of ratings) [1, 5]: 11
- Sourness detected: No (number of ratings) [1, 6]: 0
- Sourness detected: Yes (number of ratings) [1, 6]: 6
- Effectiveness in covering the sourness compared to sucrose solutions ([1]; within the tested range): not as effective in covering the sourness as compared to sucrose solutions
- Correlation between sweetness and concentration (FIG. 1) ([2]; Reb-E 20-60 ppm): near linear correlation
- Brix (average) ([2]; Reb-E 20 PPM in water + 0.6% citric acid): 1.2 Brix
- Brix (average) ([2]; Reb-E 40 PPM in water + 0.6% citric acid): 2.1 Brix
- Brix (average) ([2]; Reb-E 50 PPM in water + 0.6% citric acid): 2.2 Brix
- Brix (average) ([2]; Reb-E 60 PPM in water + 0.6% citric acid): 2.6 Brix

Compound: OC[C@H]1O[C@@](CO)(O[C@H]2O[C@H](CO)[C@@H](O)[C@H](O)[C@H]2O)[C@@H](O)[C@@H]1O [Sucrose, sucrose, reference compound]
- Sourness detected: No (number of ratings) [1, 7]: 4
- Sourness detected: Yes (number of ratings) [1, 7]: 8
- Sourness detected: No (number of ratings) [1, 8]: 2
- Sourness detected: Yes (number of ratings) [1, 8]: 4
- Sourness detected: No (number of ratings) [1, 9]: 5
- Sourness detected: Yes (number of ratings) [1, 9]: 1
- Sourness detected: No (number of ratings) [1, 10]: 2
- Sourness detected: Yes (number of ratings) [1, 10]: 4
- Brix (average) ([2]; sucrose 10 ×1000 PPM (1%) in water + 0.6% citric acid): 1.3 Brix
- Brix (average) ([2]; sucrose 20 ×1000 PPM (2%) in water + 0.6% citric acid): 2.6 Brix
- Brix (average) ([2]; sucrose 30 ×1000 PPM (3%) in water + 0.6% citric acid): 3.4 Brix
- Brix (average) ([2]; sucrose 40 ×1000 PPM (4%) in water + 0.6% citric acid): 5.2 Brix
